Test results: patent publication US20030229132A1, “Small molecule modulators of apoptosis” (priority 2002, published 2003)

Assays:
Jurkat cells = test: DNA fragmentation analysis in Jurkat cells; type: cell-based, human; settings: 50 μM compound or 1 μM staurosporin, 8 hr
Apaf-1 = target: T1, Apaf-1 (Homo sapiens, UniProt O14727); test: Apaf-1 oligomerization by gel filtration; type: biochemical; settings: for increase of oligomerization of Apaf-1 over the vehicle alone: 20 μM compound, 0.15 μM cyto c; for Apaf-1 complex assembly in the absence of cyto c: no cyto c
T1 construct: resulting in full-length Apaf-XL with a C-terminal six histidine tag; six histidine tag (His6) (C); made in house; host or cells: insect cells (Hi-5), baculovirus vector pFastbacHT / pFastbacH
T1 sequence (O14727 1-1248): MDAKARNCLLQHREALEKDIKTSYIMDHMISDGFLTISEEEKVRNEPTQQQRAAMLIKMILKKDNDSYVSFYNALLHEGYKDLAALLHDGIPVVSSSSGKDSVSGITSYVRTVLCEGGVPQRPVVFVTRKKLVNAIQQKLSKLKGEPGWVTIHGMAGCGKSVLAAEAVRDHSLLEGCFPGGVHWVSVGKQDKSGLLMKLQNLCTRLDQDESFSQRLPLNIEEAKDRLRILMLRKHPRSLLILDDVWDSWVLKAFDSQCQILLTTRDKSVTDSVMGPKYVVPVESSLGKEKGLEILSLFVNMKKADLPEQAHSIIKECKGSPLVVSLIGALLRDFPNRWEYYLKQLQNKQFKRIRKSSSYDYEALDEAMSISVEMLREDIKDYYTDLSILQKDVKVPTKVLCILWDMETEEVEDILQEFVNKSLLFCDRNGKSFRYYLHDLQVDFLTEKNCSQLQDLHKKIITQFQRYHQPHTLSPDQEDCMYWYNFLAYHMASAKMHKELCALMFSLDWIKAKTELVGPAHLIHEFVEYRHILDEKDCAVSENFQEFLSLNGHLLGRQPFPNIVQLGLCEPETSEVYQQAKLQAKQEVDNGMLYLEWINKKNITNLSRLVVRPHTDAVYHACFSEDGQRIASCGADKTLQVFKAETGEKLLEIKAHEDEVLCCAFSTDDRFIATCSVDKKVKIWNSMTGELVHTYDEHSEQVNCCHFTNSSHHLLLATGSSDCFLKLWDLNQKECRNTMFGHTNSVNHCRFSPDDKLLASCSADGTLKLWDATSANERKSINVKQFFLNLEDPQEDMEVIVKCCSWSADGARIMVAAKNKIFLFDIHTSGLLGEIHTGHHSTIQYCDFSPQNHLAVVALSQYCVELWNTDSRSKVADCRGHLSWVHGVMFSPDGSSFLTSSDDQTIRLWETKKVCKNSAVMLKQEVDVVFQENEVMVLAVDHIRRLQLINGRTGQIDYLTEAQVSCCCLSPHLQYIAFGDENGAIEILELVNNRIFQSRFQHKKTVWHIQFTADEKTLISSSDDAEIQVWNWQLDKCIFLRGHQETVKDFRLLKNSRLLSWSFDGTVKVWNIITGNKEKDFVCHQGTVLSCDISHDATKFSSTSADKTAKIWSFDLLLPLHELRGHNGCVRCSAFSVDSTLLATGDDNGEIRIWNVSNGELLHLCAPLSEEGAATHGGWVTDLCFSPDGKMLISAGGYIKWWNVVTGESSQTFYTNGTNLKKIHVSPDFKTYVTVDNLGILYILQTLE
Protocol: FIG. 7 depicts activity of compounds 1-5 at low cyto c concentrations in a purified system. Apaf-1 was incubated with vehicle, cyto c, or cyto c plus 20 μM compound as indicated, and then separated on a Superose 6 gel filtration column. Individual fractions were assayed for relative Apaf-1 concentrations by capture ELISA (bar graph), or the ability to activate procaspase-3 processing in lysates (line graph). The percent of Apaf-1 in apoptosomes was determined by dividing the amount of Apaf-1 in fractions 8-11 by the total amount of Apaf-1. The extent of caspase-3 activation (given in arbitrary units) corresponds to the area under the curve for fractions 8-11 in each panel. Black bars represent fractions used for calculations.
As the compounds appeared to be acting prior to caspase activation, their effect on the oligomerization of Apaf-1 was assessed (K. Cain, D. G. Brown, C. Langlais, G. M. Cohen, J Biol Chem 274, 22686-92 (1999); K. Cain et al., J Biol Chem 275, 6067-70 (2000)). By gel filtration, Apaf-1 normally runs as a monomer of ˜140 kD (FIG. 7) (see, A. Saleh, S. M. Srinivasula, S. Acharya, R. Fishel, E. S. Alnemri, J Biol Chem 274, 17941-5 (1999)). Incubation of Apaf-1 with 5 μM cyto c induces over 90% of the Apaf-1 to form large complexes of ˜700 kD, whereas incubation with 0.15 μM cyto c concentration allowed only 22% of the Apaf-1 to assemble into complexes. However, the addition of 20 μM compound 2 or 5 at the lower cyto c concentration caused the formation of two higher molecular weight complexes: a major peak that runs at the same retention time as the complex seen at 5 μM cyto c (˜700 kD), and a minor peak that elutes in the void volume. […] To determine if the Apaf-1 complexes induced by the compounds at the lower cyto c concentration are competent for caspase activation, procaspase-9, procaspase-3, and dATP were added to fractions from the gel filtration column and assayed for caspase-3 activation. Fractions from samples that had been incubated with 5 μM cyto c strongly activated caspase-3 processing (FIG. 7, panel ii, line graph), with the maximal caspase activation corresponding to the fractions that contained the apoptosome complex. On the other hand, no fractions form the sample without cyto c activated capsase-3 processing (panel i). There was a small but measurable amount of capsase-3 activation when the cyto c concentration was reduced to 0.15 μM (panel iii). However, the extent of caspase-3 activation at the reduced level of cyto c increased approximately 4-fold when either compound 2 or 5 was added to the reaction (from 0.36 arbitrary units for the vehicle alone to 1.57 and 1.4 for compounds 2 and 5, respectively, panels iv and vi). […] Again, there was no increase in capsapse-3 activation when compounds were incubated with Apaf-1 in the absence of cyto c.
Bovine heart cyto c is purchased from Sigma and used without further purification. The XL form of Apaf-1 is cloned into pFastbacH and expressed in insect cells, resulting in full-length Apaf-XL with a C-terminal six histidine tag. Purification of Apaf-1 is according to A. Saleh, et al., J Biol Chem 274, 17941-45 (1999). 100 μL of 2 μM Apaf-1 is combined with 300 μM dATP in a mixture, with or without the further addition of 0.15 μM cyto c or compounds and heated for 30 min at 37° C.
The mixtures are next injected into a Superose 6 gel filtration column and separated at 0.4 mL/min in PBS; 0.8 mL fractions are collected 10 min after injection. […]

Structure (SMILES)	DNA fragmentation (Jurkat cells)	increase of oligomerization of Apaf-1 over the vehicle alone (Apaf-1)	Apaf-1 complex assembly in the absence of cyto c (Apaf-1)
O=C1C(=O)N(Cc2ccc(Cl)c(Cl)c2)c2ccccc21 [Compound 2]	induced DNA fragmentation	about 1.5 fold	no complex assembly
O=C(NCc1ccc(Cl)c(Cl)c1)OC1CCc2ccccc21 (centres unmarked) [Compound 4]	less pronounced effect	no effect	–
O=C(NCc1ccc(Cl)c(Cl)c1)OC1CCc2ccccc21 (centres unmarked) [Compound 5]	induced DNA fragmentation	about 1.5 fold	no complex assembly
